Assay results taken from patent EP4653017A1, “ANTIBODY-DRUG CONJUGATE AND USE THEREOF” (Tyligand Bioscience (Shanghai) Limited, priority 2023, dated 2024).
Structures can show the parent of a compound that is named as a salt.

What was measured:
[1] = test system: CT26 cells; experiment: Inhibition of CT26 cell proliferation (CellTiter-Glo); format: cell-based, mouse
Description: CT26 cells are a mouse colorectal cancer cell line. In this experiment, CellTiter-Glo Luminescence Cell Viability Assay kit from Promega was used to assess the inhibitory activity of the compounds on CT26 cell proliferation.
When CT26 cells (ATCC #CRL-2638) were revived, the cryovial was rapid shaken in a 37°C water bath to thaw with 1 min. The thawed cell suspension was mixed well with DMEM medium (GE Company, Cat. No. #SH30243.01) containing 10% FBS (GIBCO, Cat. No. #10099-141), centrifuged at 1000 rpm for 5 min, and the supernatant was discarded. The cell pellet was resuspended in 5 mL of complete medium (DMEM medium containing 10% FBS), placed in a cell culture flask with a bottom area of 25 cm^2, and cultured in a cell incubator at 37°C, 5% CO2, and 95% humidity. Passage was performed when the confluence rate of cells reached 70%~80%. Referring to the cell passage method at plating, all cells in the flask were transferred to a 15 mL centrifuge tube, centrifuged at 1000 rpm for 5 minutes, and the supernatant was discarded. The cell pellet was resuspended in 5 mL of new complete medium, 1 mL was placed in a cell culture flask with a bottom area of 25 cm^2, and 4 mL of fresh complete medium was added to continue the culture. Plating was performed when the cell confluence rate of cells reached 70% to 80% again. Referring to the cell passage method at plating, 1/5 of the cell suspension was maintained and the remaining 4/5 of the cell suspension was placed in a 15 mL centrifuge tube. The cells were centrifuged, the old medium was discarded, the cells was washed once with DMEM medium (without serum), and centrifuged to remove the supernatant. Cells were resuspended with DMEM medium (without serum). […]. A cell suspension at a density of 1.1 x 10^4 viable cells/mL was prepared using DMEM medium (without serum) and 90 µL of the cell suspension was added to 96-well clear flat-bottom black-walled cell culture plate wells (Corning, Cat. No. #3603) to yield a cell density of 1000 viable cells/well in the plate. A control group without cells, without compounds, and with complete medium only (i.e., culture medium control) was set up, and a control group without compounds and with cells (i.e., cell control) was set up. The plates were incubated overnight in a cell incubator.
A DMSO stock solution of 10 mM compound was first serially diluted at a 3.16-fold dilution ratio with DMSO (Sigma, Cat. No. #D2650) to a ninth concentration and a tenth concentration of DMSO control without compound was set. DMSO solutions containing different concentrations of the compound were then diluted a 10-fold dilution ratio with PBS (Solarbio company, Cat. No. #P1020) to achieve a DMSO content of 10% in each concentration of the compound solution. Finally, 10 µL of the above solution was added to the corresponding cell culture plate to achieve a starting concentration of 100 µM compound, a 3.16-fold dilution ratio of adjacent concentrations, and a DMSO content of 1% in the cell culture plate. The plates were maintained in a cell incubator for an additional 120 hours.
After 120 hours, the CellTiter-Glo reagent (Promega, Cat. No. #G7572) was thawed and the plate was equilibrated at room temperature for 30 min. Then, 100 µL CellTiter-Glo was added to each well of the plate and shaken on an orbital shaker for 5 min to fully lyse the cells. The plate was placed at room temperature for 20 min to stabilize the cold light signal, and the cold light value of each well was scanned with a multifunctional microplate reader (Molecular Devices, Spectramax M3) at full wavelength.
The compound of the present invention and ADU-S100 (MCE, Cat. No. #HY12885A) were used as controls: Clofarabine (Wuhu Huaren Technology, Cat. No. #HR-00701002), Cladribine (CSNpharm, Cat. No. #CSN10004), Gemcitabine Hydrochloride (Shaoyuan, Cat. No. #SY014538), Gemcitabine Prodrug LY2334737 (home-made). […]

[2] = test system: A375; experiment: Inhibition of tumor cell line proliferation (Table 3), A375; format: cell-based; conditions: A-375; A375, Human melanoma cells
[3] = test system: B16F10; experiment: Inhibition of tumor cell line proliferation (Table 3), B16F10; format: cell-based; conditions: B16-F10; B16F10, Mouse melanoma cells
[4] = test system: Daudi; experiment: Inhibition of tumor cell line proliferation (Table 3), Daudi; format: cell-based; conditions: Human Burkitt's lymphoma cells
[5] = test system: H22; experiment: Inhibition of tumor cell line proliferation (Table 3), H22; format: cell-based; conditions: H22, Mouse hepatoma cells
[6] = test system: MC38; experiment: Inhibition of tumor cell line proliferation (Table 3), MC38; format: cell-based; conditions: MC-38; MC38, Mouse colon cancer cells
[7] = test system: human ovarian cancer SK-OV-3; experiment: SK-OV-3 subcutaneous xenograft model, Example 7 (ADC-1, ADC-2); format: in vivo, BALB/c Nude mice; conditions: 0.1 mg/kg; for Tumor growth inhibition (TGI) / Rate of complete tumor regression (TV = 0 mm^3): Day 21; for Rate of complete tumor regression (TV = 0 mm^3): 5 mice
Description: 0.1 mL (1×10^7) of human ovarian cancer SK-OV-3 cells (purchased from ATCC, Cat#HTB-77) (PBS: matrigel volume ratio of 1:1) was subcutaneously inoculated into the right posterior back of each mouse (BALB/c Nude mice, 6-8 weeks old, female, Jiangsu GemPharmatech Co., Ltd.). When the mean tumor volume reached approximately 150 mm^3, the mice were randomly divided into 9 experimental groups, with 5 mice in each group. […] Group 9 was received intratumoral injection of CDN-3 0.1 mg/kg on Days 0, 4, and 7 of the study for a total of 3 drug doses (see Table 4 for animal grouping). The vehicle was a PBS buffer. Tumor volume and body weight were measured twice weekly during the experimental period, and data was recorded. Tumor volume was calculated according to the formula in Example 3.

**Q.** For `Nc1nc2c(ncn2[C@@H]2O[C@@H]3CO[P@@](=O)(S)O[C@H]4[C@H](F)[C@H](n5cnc6c(N)nc(Cl)nc65)O[C@@H]4CO[P@@](=O)(S)O[C@@H]2[C@@H]3O)c(=O)[nH]1` [CDN-3, (2',3')-cyclo-(Rp,Rp)-[2'-O-thiophosphodiester-guanosine]-[3'-O-thiophosphodiester-2-chloro-2'-deoxy-2'-fluoro-beta-adenosine]diammonium salt], which IC50 ([1]; Mus musculus, CT26, 120 h, read-out: CT-26 activity) is on record?
**A.** < 1000 nM

**Q.** And the “inhibitory ability on growth of CT26 tumor cells in vitro (in words)” value ([1]; superior to ADU-S100)?
**A.** particularly significant inhibitory ability

**Q.** And the IC50 [2]?
**A.** 206 nM

**Q.** And the IC50 [3]?
**A.** 8700 nM

**Q.** What about the IC50 [4] of the same molecule?
**A.** 423 nM

**Q.** And the IC50 [5]?
**A.** 982 nM

**Q.** And the IC50 [6]?
**A.** 1020 nM

**Q.** And the “Tumor Volume (mm^3, Day 21)” value ([7]; i.t., day 0, 4, 7)?
**A.** 540 ± 47 mm^3

**Q.** What about the “Tumor growth inhibition (TGI)” value ([7]; i.t., day 0, 4, 7) of the same molecule?
**A.** 39%

**Q.** What about the “Rate of complete tumor regression (TV = 0 mm^3)” value ([7]; i.t., day 0, 4, 7) of the same molecule?
**A.** 0% (0/5)

**Q.** What about the “Tumor Volume (mm^3, Day 21)” value ([7]; i.v., day0) of the same molecule?
**A.** 723 ± 140 mm^3

**Q.** What about the “Tumor growth inhibition (TGI)” value ([7]; i.v., day0) of the same molecule?
**A.** 10%

**Q.** What about the “Rate of complete tumor regression (TV = 0 mm^3)” value ([7]; i.v., day0) of the same molecule?
**A.** 0% (0/5)
